# Laboratory results from patent publication US8895610B1, “Platinum (IV) compounds targeting zinc finger domains” (priority 2007, dated 2014).
# Several values for one entry are separate records, joined by “and”; a condition that tells them apart may be missing. Identical values can stand only once. Entries after “also recorded” stand apart in the source; their conditions may differ.
# Assays:
# IL-13 = assay: Feline blood serum immunofluorescent bead analysis: IL-13; type: in vivo, cat; conditions: cats BR, CF
# Protocol: (§1) Test sera samples from select felines were analyzed using the Rules-Based Medicine (Austin, Tex.) human multi-analyte for 90 measures from a single sample of less than 0.5 mL. The assay uses immunofluorescent beads to simultaneously measure antibody recognition to individually identifiable colored beads, each conjugated with a specific antibody, within a single well plate. Blood samples were drawn preceding (pretreatment) and following (post treatment) one-month FX101 treatment (from felines in Example 6), and are compared with two uninfected control felines. Human cross-reactive antibodies are commonly used for felines, and are relative rather than quantitative measures. Reductions in TNF-alpha and MMP-2 are evident in treated cats; TIMP-1 (Tissue Inhibitor of Metalloproteinases) is not associated with the downregulation of MMP-2. Both MMP-2 and MMP-9, as well as MCP-1, are considered important contributors to the penetration of virally-infected cells across the BBB (Webster, 2006). Additional comments follow the table.
# [1] = tested on: HIV-1-transfected HeLa host cells (pNL4-3); assay: Virus release in HIV-transfected HeLa cells (radiolabel, immunoprecipitation); type: cell-based, human; conditions: vs untreated transfected HeLa cells
# Description: Briefly, HeLa cells were transfected (calcium phosphate method) with the full-length, infectious HIV-1 molecular clone pNL4-3 to examine single-cycle particle production (Freed, 1994). Transfected cells were metabolically radiolabeled, and cell- and virus-associated proteins were immunoprecipitated and quantified as previously described (Waheed and Freed, 2008). Virus release efficiency was reduced in a concentration-dependent manner with FX101 as compared with untreated controls.
# MMP-2 = assay: Feline blood serum immunofluorescent bead analysis: MMP-2; type: in vivo, cat; conditions: for MMP-2, relative blood serum measure: cats BR, CF
# Protocol: as §1
# [2] = tested on: virions from HIV-1-transfected HeLa cells (pNL4-3); assay: Electron micrographs of virions from HIV-1 transfected HeLa cells; type: cell-based, human; conditions: 10 and 20 uM; vs untreated control cells
# Protocol: Virions collected from HeLa cells 24 hours post-transfected with pNL4-3 HIV-1 were treated with or without FX101 for 2 hours, washed with phosphate-buffered saline, pelleted by ultracentrifugation, fixed with buffer containing 2% glutaraldehyde and 0.1M sodium cacodylate as described (Freed, 1994), and analyzed by electron microscopy. These images reveal comparative distortions of both viral core and corresponding membranes of viral progeny, consistent with published images of immature virion particles having a thick electron-dense outer shell and an electron-lucent center lacking a typical cone-shaped core, produced by nucleocapsid mutant virions (Tanchou, 1998). Mutational deletion of either or both zinc finger domains of the nucleocapsid protein also produces morphologically altered virions, reduces virion release and alters RNA packaging (Houzet, 2008). The failure of nucleocapsid protein proteins to chaperone viral RNA together with the failure to form the nucleocapsid membrane reflects two roles of nucleocapsid proteins involving zinc finger domains. Obstruction of virion assembly may create impotent virions while maintaining antigens for host humoral immune response as virus-like particles. […]
# [3] = Blood brain barrier penetration: CSF platinum by graphite furnace atomic absorption; type: in vivo, cat; conditions: final i.v. treatment, both cats
# Protocol: Cerebrospinal fluid (CSF) from cats BR and CF of Example 6 were collected under sedation following humane animal practices. CSF (0.5-1 ml) samples were collected within 15 minutes of FX101 peripheral intravenous (IV) injection to examine for drug penetration into the CNS. Importantly, this analysis was conducted upon the final IV drug treatment, which would most likely evidence resistances to CNS uptake as experienced by other CNS-penetrable drugs. Instead, CSF concentrations (analyzed by graphite furnace atomic absorption spectrometry for this inorganic complex as illustrated for cat “BG”) were equivalent to blood serum concentrations of 5 micrograms/mL in both cats, supporting a continuing unimpeded penetration into the vital CNS compartment through the blood brain barrier.
# [4] = tested on: transfected HeLa and HEK-293 cells; assay: Viral transcription or infectivity in transfected HeLa and HEK-293 cells; type: cell-based
# [5] = biological target: T1, synthetic peptide F2, the carboxy-terminal zinc finger domain of HIV-1 (Human immunodeficiency virus type 1 group M subtype B, UniProt P12493); conditions: 1:1 metal:F2, 10^−4 mole/liter in PBS
# Protocol: The synthetic peptide F2, the carboxy-terminal zinc finger domain of HIV-1, was examined by ultraviolet-visible absorption spectroscopy for its interaction with various metals. […] Stock solutions of 2×10^−4 mole/liter F2 peptide were prepared in phosphate buffered saline (PBS) without calcium or magnesium; known stock concentrations of Fe(II), Co(II), Zn(II) and Pt(IV) metals were also prepared in PBS. One to one ratios of F2 peptide with each metal were individually combined at room temperature with final concentrations of 10^−4 mole/liter, and spectra were collected at various times using a Nanodrop Spectrophotometer (Thermo Scientific, Inc.) having a xenon flash lamp and requiring <2 microliters of sample deposited directly onto an optical lense.
# FIV Petaluma = assay: p25 antigen evaluation of antiviral activity in MBM cells; type: cell-based, feline; conditions: for p25 Viral Antigen (OD), average / p25 Viral Antigen (OD), individual wells: 7 days post infection, K+ = 1.195, K− = 0.08, listed as 4
# Protocol: Antiviral activity in MBM was determined by inoculating 200 Tissue Culture Infectious Doses 50% FIV Petaluma (Talbott, 1989) in 100 μL RPMI 1640 medium into quadruplicate wells of 96-well microplates containing 2×10^5 cells in 100 μL medium. The cultures were monitored by measuring FIV p25 capsid protein (Lombardi, 1994) release in the supernatants after 7 days of incubation at 37° C. in 5% CO2 (Table 12). Half the media (without drug) was replaced on days 2 and 6 after infection and initial drug exposure. […] Drugs are identified as: CPA-7 (#1); NAD (#2); cisplatin (#3) and FX101 (#4). […]. […] A minimum of 50% inhibition in vitro is required to offset viral infectivity and replication in vivo.
# Calcitonin = assay: Feline blood serum immunofluorescent bead analysis: Calcitonin; type: in vivo, cat; conditions: cats BR, CF
# Protocol: as §1
# [6] = biological target: T1, synthetic peptide F2, the carboxy-terminal zinc finger domain of HIV-1; conditions: 100 pmole/microliter solutions, equal volumes; isotopic distribution of platinum at m/z~631
# Protocol: FIGS. 1A and 1B show Time of Flight (TOF) mass spectroscopy (MS) fragmentation pattern of the synthetic peptide F2, the carboxy-terminal zinc finger domain of HIV-1, bound to platinum. […] Equal volumes of F2 with FX101, F2 with ZnCO3, F2 with both FX101 and ZnCO3 were mixed, resulting in four total peptide solutions. Full TOF MS was acquired on the QSTAR at the Johns Hopkins Proteomics Core Facility with 1 uL of original sample diluted 1:10 in 50% methanol with 0.1% formic acid/water and 3 uL of this mixture loaded onto the 2 um New Objective tip and nano-sprayed using ion spray voltage of 1200 eV; mass calibration of Csl mixture was performed prior to sample injection. Mass range 590 kDa (50%) to 10500 kDa (50%) was collected for 1.0 minute.
# [7] = post treatment (one-month FX101 treatment)
smiles,measurement,setting,value
"[NH2][Pt]([NH2])([Cl])([Cl])([Cl])[N+](=O)[O-] [FX101, nitrotrichlorodiamminoPt(IV)]","IL-13, relative blood serum measure",IL-13; [7],27 pg/mL and 34 pg/mL
same,"IL-13, relative blood serum measure",IL-13; pretreatment,15 pg/mL and 12 pg/mL
same,p24 Gag proteins,[1],greatly reduced
same,HIV-1 virus release efficiency,[1]; concentration-dependent,greatly reduced
same,"MMP-2, relative blood serum measure",MMP-2; [7],2070 ng/mL and 2120 ng/mL
same,MMP-2 in serum of treated cats (in words),MMP-2; post vs pre one-month treatment,Reductions
same,"MMP-2, relative blood serum measure",MMP-2; pretreatment,3000 ng/mL and 3150 ng/mL
same,virion morphology (phenotype of virions produced),[2],immature virions; also recorded: nucleotide-defective and nucleotide-deficient virion particles with morphologically altered phenotypes
same,blood serum concentrations,[3],5 micrograms/mL
same,CSF concentrations,[3]; within 15 minutes of peripheral i.v. injection,5 micrograms/mL
same,direct inhibition of viral transcription or infectivity,[4],did not act as a direct inhibitor of viral transcription or infectivity
same,comparative absorption at 250 nm of metal with F2 peptide,[5],0.118
same,inhibition (elimination of all measures of virus) by day 7,"FIV Petaluma; 7 days, concentrations used 5 and 20 μM, listed as #4",100%
same,"p25 Viral Antigen (OD), average",FIV Petaluma; conc 5 μM,0 OD
same,"p25 Viral Antigen (OD), individual wells",FIV Petaluma; conc 5 μM,0 OD
same,"p25 Viral Antigen (OD), average",FIV Petaluma; conc 20 μM,0 OD
same,"p25 Viral Antigen (OD), individual wells",FIV Petaluma; conc 20 μM,0 OD
same,"Calcitonin, relative blood serum measure",Calcitonin; [7],2.9 pg/mL
same,"Calcitonin, relative blood serum measure",Calcitonin; pretreatment,7.6 pg/mL and 11 pg/mL
same,direct binding of platinum to F2 peptide by TOF MS,[6],Pt-bound peptide
